Experimental data reported in ChEMBL document CHEMBL3407359, “(3Z)-3-(2-[4-(aryl)-1,3-thiazol-2-yl]hydrazin-1-ylidene)-2,3-dihydro-1H-indol-2-one derivatives as dual inhibitors of HIV-1 reverse transcriptase” (Eur J Med Chem, 2015).

Columns and labels:
[1] = biological target: T1, Human immunodeficiency virus type 1 reverse transcriptase (Human immunodeficiency virus 1, UniProt Q72547); experiment: Inhibition of HIV1 reverse transcriptase-associated DNA polymerase-independent RNase H activity after 1 hr
[2] = biological target: T1, Human immunodeficiency virus type 1 reverse transcriptase; experiment: Inhibition of HIV1 reverse transcriptase-associated RNA-dependent DNA polymerase activity after 30 mins
[3] = biological target: Human immunodeficiency virus type 1 reverse transcriptase (Human immunodeficiency virus 1) (UniProt Q72547); experiment: Specificity index, ratio of IC50 for HIV1 reverse transcriptase-associated DNA polymerase-independent RNase H activity to IC50 for HIV1 reverse transcriptase-associated RNA-dependent DNA polymerase activity
[4] = biological target: T2, Human immunodeficiency virus type 1 reverse transcriptase (Human immunodeficiency virus 1, UniProt Q72547, K103N)
Description: Inhibition of HIV1 reverse transcriptase Lys103Asn mutant-associated RNA-dependent DNA polymerase activity after 30 mins

[5] = biological target: T2, Human immunodeficiency virus type 1 reverse transcriptase; remark: listed apart in the source
Description: Inhibition of HIV1 reverse transcriptase Lys103Asn mutant-associated DNA polymerase-independent RNase H activity after 1 hr

[6] = Metal chelating activity of the compound assessed as magnesium ion complex formation by UV-vis spectrometric analysis; assay type: physicochemical
[7] = biological target: T3, Human immunodeficiency virus type 1 reverse transcriptase (Human immunodeficiency virus 1, UniProt Q72547, Y181C)
Description: Inhibition of HIV1 reverse transcriptase Tyr181Cys mutant-associated DNA polymerase-independent RNase H activity after 1 hr

[8] = biological target: T3, Human immunodeficiency virus type 1 reverse transcriptase; remark: listed apart in the source
Description: Inhibition of HIV1 reverse transcriptase Tyr181Cys mutant-associated RNA-dependent DNA polymerase activity after 30 mins

| SMILES | IC50 [1] | IC50 [2] | Ratio IC50 [3] | IC50 [4] | IC50 [5] | Activity [6] | IC50 [7] | IC50 [8] |
| --- | --- | --- | --- | --- | --- | --- | --- | --- |
| O=C1Nc2ccccc2/C1=N/Nc1nc(-c2ccc(Cl)cc2)cs1 | 10.6 µM | 20 µM | 0.53 | – | – | – | – | – |
| O=C1Nc2ccccc2/C1=N/Nc1nc(-c2ccc(-c3ccccc3)cc2)cs1 | 2.5 µM | 22 µM | 0.11 | 18.8 µM | 3.42 µM | Not Active | 2.7 µM | 15.4 µM |
| O=C1Nc2ccccc2/C1=N/Nc1nc(-c2ccccc2)cs1 | 100 µM | 71.6 µM | 1.3 | – | – | – | – | – |
| O=C1Nc2ccccc2/C1=N/Nc1nc(-c2ccc(Br)cc2)cs1 | 14.9 µM | 81 µM | 0.18 | – | – | – | – | – |
| Cc1ccc(-c2csc(N/N=C3\C(=O)Nc4ccccc43)n2)cc1 | 9 µM | 45 µM | 0.2 | – | – | – | – | – |

More lines, main results first:

| IC50 [1] | IC50 [2] | Ratio IC50 [3] | SMILES | IC50 [4] | IC50 [5] | Activity [6] | IC50 [7] | IC50 [8] |
| --- | --- | --- | --- | --- | --- | --- | --- | --- |
| 3.9 µM | 19.5 µM | 0.2 | O=C1Nc2ccccc2/C1=N/Nc1nc(-c2ccc(Cl)cc2Cl)cs1 | – | – | – | – | – |
| 2.9 µM | 34 µM | 0.08 | O=C1Nc2ccccc2/C1=N/Nc1nc(-c2ccc([N+](=O)[O-])cc2)cs1 | – | – | – | – | – |
| 4.7 µM | 26 µM | 0.18 | COc1ccc(-c2csc(N/N=C3\C(=O)Nc4ccccc43)n2)cc1 | – | – | – | – | – |
| 2.6 µM | 18.5 µM | 0.14 | O=C1Nc2ccccc2/C1=N/Nc1nc(-c2ccc(F)cc2F)cs1 | – | – | – | – | – |
| 6.4 µM | 23.9 µM | 0.26 | O=C1Nc2ccccc2/C1=N/Nc1nc(-c2ccc(F)cc2)cs1 | – | – | – | – | – |
| 2.8 µM | 13 µM | 0.21 | O=C1Nc2ccccc2/C1=N/Nc1nc(-c2cccc([N+](=O)[O-])c2)cs1 | – | – | – | – | – |
| 3.2 µM | 0.9 µM | 3.5 | O=C1Nc2ccccc2/C1=N/Nc1nc(-c2ccc(O)c(O)c2)cs1 | – | – | Not Active | – | – |
